Measured values taken from PMC4729137, “Functional analysis of androgen receptor mutations that confer anti-androgen resistance identified in circulating cell-free DNA from prostate cancer patients” (Genome Biology, 2016).
Residue numbers refer to the chain shown, from its start.

Columns and labels:
H875Q-AR = molecular target: T1, H875Q-AR (Homo sapiens, UniProt P10275, H875Q); format: cell-based; details: AR mutant H875Q; transfected PC3 cells; 0.1 nM R1881; drug 0 to 50 μM
T1 sequence (P10275 1-920 H875Q): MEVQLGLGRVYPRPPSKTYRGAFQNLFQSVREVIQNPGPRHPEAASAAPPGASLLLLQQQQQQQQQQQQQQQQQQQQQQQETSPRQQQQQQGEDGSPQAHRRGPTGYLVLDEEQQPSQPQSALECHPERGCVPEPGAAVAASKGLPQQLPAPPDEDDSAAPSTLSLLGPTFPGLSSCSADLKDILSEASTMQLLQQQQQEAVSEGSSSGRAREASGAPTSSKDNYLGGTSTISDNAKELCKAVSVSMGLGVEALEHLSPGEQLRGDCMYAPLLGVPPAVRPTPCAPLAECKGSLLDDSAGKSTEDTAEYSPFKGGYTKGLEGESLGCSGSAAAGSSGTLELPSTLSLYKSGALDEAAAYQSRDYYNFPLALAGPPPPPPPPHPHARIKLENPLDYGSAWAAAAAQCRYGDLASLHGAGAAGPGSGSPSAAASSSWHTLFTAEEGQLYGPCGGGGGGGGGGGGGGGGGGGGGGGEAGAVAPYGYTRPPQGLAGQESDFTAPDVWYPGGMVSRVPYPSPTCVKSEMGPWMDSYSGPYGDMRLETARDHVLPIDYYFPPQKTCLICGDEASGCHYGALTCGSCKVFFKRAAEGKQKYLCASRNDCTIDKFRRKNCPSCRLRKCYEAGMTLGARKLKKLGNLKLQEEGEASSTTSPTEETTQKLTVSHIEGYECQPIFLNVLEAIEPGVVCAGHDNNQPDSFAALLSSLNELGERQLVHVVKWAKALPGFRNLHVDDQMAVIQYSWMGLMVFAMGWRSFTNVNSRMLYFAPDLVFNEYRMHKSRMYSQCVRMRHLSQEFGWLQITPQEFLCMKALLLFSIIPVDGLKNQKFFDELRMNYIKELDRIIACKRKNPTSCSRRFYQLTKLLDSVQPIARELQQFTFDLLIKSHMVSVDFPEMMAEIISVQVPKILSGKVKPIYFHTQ
Source text: (§1) Full-length human AR (WT-AR) was encoded on a pcDNA3.1 expression plasmid (Life technologies). The LBD point mutations (single and multiple) were generated using the QuikChange II Site-Directed Mutagenesis Kit (Agilent Technologies) as per manufacturer’s instructions using WT-AR as the template. The mutagenic oligonucleotide primers were designed individually with the desired mutation in the middle of the primer with approximately 10 to 15 bases of correct sequence on both sides.
(§2) PC3 cells were seeded and transfected as described above. […] A non-stimulated/no R1881 control was used. After 24 h, cells were lysed and AR-dependent luciferase activity was quantified. Each concentration was assayed in quadruplicate n = 4, with a biological replicate of n = 3. Results were averaged and normalized by expressing them as a percentage of WT AR activity.

L882I-AR = molecular target: T2, L882I-AR (Homo sapiens, UniProt P10275, L882I); format: cell-based; details: AR mutant L882I; transfected PC3 cells; 0.1 nM R1881; drug 0 to 50 μM
T2 sequence (P10275 1-920 L882I): T1 sequence (P10275 1-920 H875Q) with Q875H, L882I
Source text: as §1, §2

CC(C)(O)C(=O)Nc1ccc([N+](=O)[O-])c(C(F)(F)F)c1 [Hydroxyflutamide, hydroxyflutamide]
Agonist response to treatment (H875Q-AR): Partial | Agonist response to treatment (L882I-AR): Partial
